Assay results as given in patent US9149038B2, “4-amino-6-(heterocyclic)picolinates and 6-amino-2-(heterocyclic)pyrimidine-4-carboxylates and their use as herbicides” (Dow AgroSciences LLC, priority 2013, dated 2015).
Where two headings read alike, the source gives them in different places.

Tested on: Wheat and Barley and weed species
Test: Post-Emergent Test III: postemergent herbicidal activity in wheat and barley, visual rating after 21 d and probit GR20/GR50/GR80/GR90 (Tables 9-13)
Type: in vivo
Conditions: for pest or weed control at 17.5 g/ha / pest or weed control at 35 g/ha / pest or weed control at 70 g/ha: post-emergence, 504 h
In short: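 Greenhouse plants (~18/17 °C, 14 h photoperiod) at second–third true leaf stage sprayed at 187 L/ha with a high rate and ½× to 1/16× serial dilutions. Visual injury 0–100% versus solvent-blank controls scored at 21 d; GR20, GR50, GR80 and GR90 derived by probit analysis across rates.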

With `Nc1c(F)c(-c2ccc(Cl)c3c2OC(F)(F)O3)nc(C(=O)O)c1Cl` [Compound 82] the “Visual Growth Reduction (%) 21 Days After Application CIRAR” value (CIRAR Canada thistle (Cirsium arvense), 17.5 g ai/ha) was “B (85-94)”, the “Visual Growth Reduction (%) 21 Days After Application CIRAR” value (CIRAR Canada thistle (Cirsium arvense), 35 g ai/ha) was “B (85-94)” and the “Visual Growth Reduction (%) 21 Days After Application CIRAR” value (CIRAR Canada thistle (Cirsium arvense), 70 g ai/ha) was “B (85-94)”. For the same compound, the “GR50 CIRAR” value (CIRAR Canada thistle (Cirsium arvense), growth reduction of 50%, probit analysis) was 1 g ai/ha, the “GR80 CIRAR” value (CIRAR Canada thistle (Cirsium arvense), growth reduction of 80%, probit analysis) was 10 g ai/ha and the “GR90 CIRAR” value (CIRAR Canada thistle (Cirsium arvense), growth reduction of 90%, probit analysis) was 34 g ai/ha. For the same compound, the “Visual Growth Reduction (%) 21 Days After Application GALAP” value (GALAP cleavers (Galium aparine), 17.5 g ai/ha) was “D (60-74)”, the “Visual Growth Reduction (%) 21 Days After Application GALAP” value (GALAP cleavers (Galium aparine), 35 g ai/ha) was “B (85-94)” and the “Visual Growth Reduction (%) 21 Days After Application GALAP” value (GALAP cleavers (Galium aparine), 70 g ai/ha) was “B (85-94)”. The “GR50 GALAP” value (GALAP cleavers (Galium aparine), growth reduction of 50%, probit analysis) was 10 g ai/ha, the “GR80 GALAP” value (GALAP cleavers (Galium aparine), growth reduction of 80%, probit analysis) was 33 g ai/ha and the “GR90 GALAP” value (GALAP cleavers (Galium aparine), growth reduction of 90%, probit analysis) was 64 g ai/ha. For the same compound, the “GR20 HORVS” value (HORVS barley, spring (crop), growth reduction of 20%, probit analysis) was 7 g ai/ha, the pest or weed control at 17.5 g/ha (Hordeum vulgare, HORVS barley, spring (crop), 17.5 g ai/ha, read-out: Visual Growth Reduction (%) 21 Days After Application HORVS) was 30 to 44% and the pest or weed control at 35 g/ha (Hordeum vulgare, HORVS barley, spring (crop), 35 g ai/ha, read-out: Visual Growth Reduction (%) 21 Days After Application HORVS) was 60 to 74%. The pest or weed control at 70 g/ha (Hordeum vulgare, HORVS barley, spring (crop), 70 g ai/ha, read-out: Visual Growth Reduction (%) 21 Days After Application HORVS) was 75 to 84%, the “Visual Growth Reduction (%) 21 Days After Application KCHSC” value (KCHSC kochia (Kochia scoparia), 17.5 g ai/ha) was “D (60-74)” and the “Visual Growth Reduction (%) 21 Days After Application KCHSC” value (KCHSC kochia (Kochia scoparia), 35 g ai/ha) was “C (75-84)”. For the same compound, the “Visual Growth Reduction (%) 21 Days After Application KCHSC” value (KCHSC kochia (Kochia scoparia), 70 g ai/ha) was “C (75-84)”, the “GR50 KCHSC” value (KCHSC kochia (Kochia scoparia), growth reduction of 50%, probit analysis) was 2 g ai/ha and the “GR80 KCHSC” value (KCHSC kochia (Kochia scoparia), growth reduction of 80%, probit analysis) was 83 g ai/ha. The “GR90 KCHSC” value (KCHSC kochia (Kochia scoparia), growth reduction of 90%, probit analysis) was greater than 140 g ai/ha, the “Visual Growth Reduction (%) 21 Days After Application LAMPU” value (LAMPU purple deadnettle (Lamium purpureum), 17.5 g ai/ha) was “G (0-29)” and the “Visual Growth Reduction (%) 21 Days After Application LAMPU” value (LAMPU purple deadnettle (Lamium purpureum), 35 g ai/ha) was “G (0-29)”. The “Visual Growth Reduction (%) 21 Days After Application LAMPU” value (LAMPU purple deadnettle (Lamium purpureum), 70 g ai/ha) was “F (30-44)”, the “GR50 LAMPU” value (LAMPU purple deadnettle (Lamium purpureum), growth reduction of 50%, probit analysis) was 89 g ai/ha and the “GR80 LAMPU” value (LAMPU purple deadnettle (Lamium purpureum), growth reduction of 80%, probit analysis) was 131 g ai/ha. The “GR90 LAMPU” value (LAMPU purple deadnettle (Lamium purpureum), growth reduction of 90%, probit analysis) was greater than 140 g ai/ha, the “Visual Growth Reduction (%) 21 Days After Application MATCH” value (MATCH wild chamomile (Matricaria recutita L.), 17.5 g ai/ha) was “C (75-84)” and the “Visual Growth Reduction (%) 21 Days After Application MATCH” value (MATCH wild chamomile (Matricaria recutita L.), 35 g ai/ha) was “C (75-84)”. For the same compound, the “Visual Growth Reduction (%) 21 Days After Application MATCH” value (MATCH wild chamomile (Matricaria recutita L.), 70 g ai/ha) was “B (85-94)”, the “GR50 MATCH” value (MATCH wild chamomile (Matricaria recutita L.), growth reduction of 50%, probit analysis) was 18 g ai/ha and the “GR80 MATCH” value (MATCH wild chamomile (Matricaria recutita L.), growth reduction of 80%, probit analysis) was 35 g ai/ha. For the same compound, the “GR90 MATCH” value (MATCH wild chamomile (Matricaria recutita L.), growth reduction of 90%, probit analysis) was 49 g ai/ha, the “Visual Growth Reduction (%) 21 Days After Application PAPRH” value (PAPRH common poppy (Papaver rhoeas), 17.5 g ai/ha) was “G (0-29)” and the “Visual Growth Reduction (%) 21 Days After Application PAPRH” value (PAPRH common poppy (Papaver rhoeas), 35 g ai/ha) was “G (0-29)”. For the same compound, the “Visual Growth Reduction (%) 21 Days After Application PAPRH” value (PAPRH common poppy (Papaver rhoeas), 70 g ai/ha) was “F (30-44)”, the “GR50 PAPRH” value (PAPRH common poppy (Papaver rhoeas), growth reduction of 50%, probit analysis) was 113 g ai/ha and the “GR80 PAPRH” value (PAPRH common poppy (Papaver rhoeas), growth reduction of 80%, probit analysis) was greater than 140 g ai/ha. The “GR90 PAPRH” value (PAPRH common poppy (Papaver rhoeas), growth reduction of 90%, probit analysis) was greater than 140 g ai/ha, the “Visual Growth Reduction (%) 21 Days After Application SASKR” value (SASKR Russian thistle (Salsola iberica), 17.5 g ai/ha) was “B (85-94)” and the “Visual Growth Reduction (%) 21 Days After Application SASKR” value (SASKR Russian thistle (Salsola iberica), 35 g ai/ha) was “B (85-94)”. For the same compound, the “Visual Growth Reduction (%) 21 Days After Application SASKR” value (SASKR Russian thistle (Salsola iberica), 70 g ai/ha) was “B (85-94)”, the “GR50 SASKR” value (SASKR Russian thistle (Salsola iberica), growth reduction of 50%, probit analysis) was 1 g ai/ha and the “GR80 SASKR” value (SASKR Russian thistle (Salsola iberica), growth reduction of 80%, probit analysis) was 10 g ai/ha. The “GR90 SASKR” value (SASKR Russian thistle (Salsola iberica), growth reduction of 90%, probit analysis) was 32 g ai/ha, the “Visual Growth Reduction (%) 21 Days After Application SINAR” value (SINAR wild mustard (Sinapis arvensis), 17.5 g ai/ha) was “A (95-100)” and the “Visual Growth Reduction (%) 21 Days After Application SINAR” value (SINAR wild mustard (Sinapis arvensis), 35 g ai/ha) was “A (95-100)”. For the same compound, the “Visual Growth Reduction (%) 21 Days After Application SINAR” value (SINAR wild mustard (Sinapis arvensis), 70 g ai/ha) was “A (95-100)”, the “GR50 SINAR” value (SINAR wild mustard (Sinapis arvensis), growth reduction of 50%, probit analysis) was 0.02 g ai/ha and the “GR80 SINAR” value (SINAR wild mustard (Sinapis arvensis), growth reduction of 80%, probit analysis) was 0.5 g ai/ha. The “GR90 SINAR” value (SINAR wild mustard (Sinapis arvensis), growth reduction of 90%, probit analysis) was 2 g ai/ha, the “GR20 TRZAS” value (TRZAS wheat, spring (crop), growth reduction of 20%, probit analysis) was 4 g ai/ha and the pest or weed control at 17.5 g/ha (Triticum aestivum, TRZAS wheat, spring (crop), 17.5 g ai/ha, read-out: Visual Growth Reduction (%) 21 Days After Application TRZAS) was 60 to 74%. For the same compound, the pest or weed control at 35 g/ha (Triticum aestivum, TRZAS wheat, spring (crop), 35 g ai/ha, read-out: Visual Growth Reduction (%) 21 Days After Application TRZAS) was 60 to 74%, the pest or weed control at 70 g/ha (Triticum aestivum, TRZAS wheat, spring (crop), 70 g ai/ha, read-out: Visual Growth Reduction (%) 21 Days After Application TRZAS) was 75 to 84% and the “Visual Growth Reduction (%) 21 Days After Application VERPE” value (VERPE bird's-eye speedwell (veronica persica), 17.5 g ai/ha) was “G (0-29)”. The “Visual Growth Reduction (%) 21 Days After Application VERPE” value (VERPE bird's-eye speedwell (veronica persica), 35 g ai/ha) was “G (0-29)”, the “Visual Growth Reduction (%) 21 Days After Application VERPE” value (VERPE bird's-eye speedwell (veronica persica), 70 g ai/ha) was “G (0-29)” and the “GR50 VERPE” value (VERPE bird's-eye speedwell (veronica persica), growth reduction of 50%, probit analysis) was greater than 140 g ai/ha. For the same compound, the “GR80 VERPE” value (VERPE bird's-eye speedwell (veronica persica), growth reduction of 80%, probit analysis) was greater than 140 g ai/ha, the “GR90 VERPE” value (VERPE bird's-eye speedwell (veronica persica), growth reduction of 90%, probit analysis) was greater than 140 g ai/ha and the “Visual Growth Reduction (%) 21 Days After Application VIOTR” value (VIOTR wild pansy (Viola tricolor), 17.5 g ai/ha) was “E (45-59)”. The “Visual Growth Reduction (%) 21 Days After Application VIOTR” value (VIOTR wild pansy (Viola tricolor), 35 g ai/ha) was “D (60-74)”, the “Visual Growth Reduction (%) 21 Days After Application VIOTR” value (VIOTR wild pansy (Viola tricolor), 70 g ai/ha) was “D (60-74)” and the “GR50 VIOTR” value (VIOTR wild pansy (Viola tricolor), growth reduction of 50%, probit analysis) was 31 g ai/ha. The “GR80 VIOTR” value (VIOTR wild pansy (Viola tricolor), growth reduction of 80%, probit analysis) was 62 g ai/ha and the “GR90 VIOTR” value (VIOTR wild pansy (Viola tricolor), growth reduction of 90%, probit analysis) was 90 g ai/ha.
